How the values were obtained:
[1] = Surface tension of electron donor solutions (pendant drop); format: physicochemical; conditions: for change in surface tension: 0% ethyl lactate
Source text: Two fundamental properties used to screen the co-solvent or surfactant properties of a solution are surface tension and interfacial tension. Surface tension measures the force per unit length along the interface between a liquid and air due to its tension. When a co-solvent or surfactant is present in an aqueous liquid at increasing concentrations, the surface tension of that liquid decreases. Interfacial tension is similar to surface tension except that it measures the force per unit length along the interface between two liquid phases arising from the surface free energy. The higher the interfacial tension between two liquids, the less likely one is to dissolve into the other, and the more difficult it is for one to be transported within the other. Thus, perhaps the most significant property of co-solvents and surfactants in the context of chlorinated solvent remediation is that they decrease the interfacial tension between the aqueous phase (groundwater) and the organic nonaqueous phase so that the solubility (or mobility for order-of-magnitude decreases) of the nonaqueous phase is enhanced. The laboratory study performed to confirm the co-solvent properties of the high concentration electron donor solution measured the surface tension of electron donor solutions at various concentrations. Next, interfacial tensions between the same electron donor solutions and nonaqueous phase TCE were measured. Two types of electron donor solutions were used. […] Surface and interfacial tension measurements were made using the pendant drop method (M. J. Rosen, ed., Structure/Performance Relationships in Surfactants, American Chemical Society, Washington […]. Arundel, The Profile Area of Pendant Drops, 82 J. Phys. Chem. 898 (1978)) coupled with real-time video imaging (M. D. Herd et al., Interfacial Tensions of Microbial Surfactants Determined by Real-Time Video Imaging of Pendant Drops, Proceedings paper number SPE/DOE 24206 513-519, SPE/DOE Eighth Symposium on Enhanced Oil Recovery, Tulsa, Okla. (1992)).

[2] = Field evaluation of enhanced in situ bioremediation at Test Area North (sodium lactate injection)
Method: A 1-year field evaluation of enhanced in situ bioremediation was performed at Test Area North (“TAN”) of the Idaho National Engineering and Environmental Laboratory. […] The locations of a 5,000 μg/L TCE isopleth (14); 1,000 μg/L TCE isopleth (16); 100 μg/L TCE isopleth (18); and 5 μg/L TCE isopleth (20) are shown by solid lines. FIG. 2 illustrates a cross section of this site, showing the surface of the ground (22), an approximately 63-m (210-feet) fractured basalt unsaturation zone (24) (not drawn to scale), an approximately 60-m (200-feet) fractured basalt aquifer (26), and an impermeable clay interbed (28). […]
The initial electron donor addition strategy involved continuous injection of potable water at 37.85 liters/minute (10 gpm) into Well TSF-05. […] It was determined that the continuous injection of clean water at 37.85 liters/minute (10 gpm) overwhelmed the flux of contaminants from the secondary source. […] This was intended to prevent significant quantities of electron donor from collecting in the injection well and to help prevent biofouling. […]
Eleven monitoring wells (i.e., TAN-D2, TAN-9, TAN-10A, TAN-25, TAN-26, TAN-27, TAN-28, TAN-29, TAN-30A, TAN-31, and TAN-37) were sampled biweekly and analyzed for electron donors, biological activity indicators, competing inorganic electron acceptors and their reduced products, chloroethenes, ethene, pH, temperature, and specific conductivity.

[3] = system: TCE-dechlorinating culture derived from TAN-25 groundwater; assay: Microcosm dechlorination and electron donor utilization study; format: cell-based
Method: Dechlorination studies were carried out to determine if whey powder solutions facilitate complete degradation of target contaminants at reasonable rates. Microcosms were constructed in triplicate sets. These microcosms were amended periodically with whey powder and TCE and analyzed monthly for TCE, its reductive degradation products, electron donor (as both COD and volatile fatty acids (VFAs)), redox, and pH.
An existing laboratory, sodium lactate-fed culture, derived from TAN-25 groundwater undergoing complete anaerobic reductive dechlorination (ARD) of TCE to ethene, was used to inoculate the cultures. Fresh TAN groundwater from the source area was also used to ensure that microbial populations that have been lost as a result of laboratory conditions were present for the evaluation. Serum vials (160 mL) were used as microcosms to grow the cultures. Prior to inoculation, the microcosms, along with all other culture-contact supplies, were autoclaved at 121° C. for 20 minutes and cooled to room temperature. Inoculation of the microcosms was done in a glove box containing nitrogen (95%), carbon dioxide (2.5%), and hydrogen (2.5%). Each microcosm was loaded with the inoculum, which comprised cells from the TCE-dechlorinating culture (1 L), cells from TAN-25 groundwater (1 L), and TAN-37 groundwater (2.5 L) as the media.
The culture cells were used to ensure a robust dechlorinating community was present, and cells were collected from TAN-25 groundwater to ensure the laboratory community was representative of the community at TAN. […] The cell pellets from the dechlorinating culture and TAN-25 groundwater were separated from the supernatant because both contained electron donors, including propionate, acetate, and lactate. TAN-37 groundwater was selected as the medium because it was anaerobic groundwater that contained little or no carbon (40 mg/L as COD with <2.5 ppm acetate and propionate) that might interfere with the evaluation of electron donor utilization. The inoculum mixture was then spiked with TCE (10 ppm), aliquoted (100 mL) into the microcosms, and each respective electron donor was added (˜200 ppm for all electron donors except whey powder [˜400 ppm]). The microcosms were then sealed with butyl-rubber septa and crimped. The headspace of each microcosm was flushed for 10 minutes with 100% nitrogen, and then an initial positive pressure of 5 psig was induced into each one. […] The test microcosms were prepared in triplicate and negative control microcosms were amended with whey powder and LactOil™/propionate. The study included a total of 20 microcosms.
Three months after inoculation, additional electron donor was added to all of the microcosms (200 to 300 mg/L as COD). […] At this point, approximately 50 mL of TAN-37 groundwater was also amended to all of the biotic microcosms to replace the volume lost because of sampling. This was done by placing all of the biotic microcosms into the anaerobic chamber containing nitrogen (95%), carbon dioxide (2.5%), and hydrogen (2.5%); removing the septum; adding TAN-37 groundwater and electron donor; and replacing septum and spiking each microcosm with a TCE stock solution. TCE was amended to all of the microcosms 4 and 6 months after inoculation.
Throughout these studies, the microcosms were monitored monthly for TCE, cis-DCE, trans-DCE, VC, ethene, ethane, methane, lactate, acetate, propionate, butyrate, pH, and Eh. […] Analytical samples (6 mL) were removed using a glass syringe (Hamilton Co., Reno, Nev.) and a 22-gauge sterile needle.

[4] = Interfacial tension between electron donor solutions and nonaqueous phase TCE (pendant drop); format: physicochemical; conditions: 0% ethyl lactate
Source text: Based on the field results presented in Example 1, laboratory studies were preformed to confirm that the enhanced bioavailability of TCE observed in the field was due to co-solvent or surfactant behavior resulting from the use of high concentrations of sodium lactate. Two fundamental properties used to screen the co-solvent or surfactant properties of a solution are surface tension and interfacial tension. Surface tension measures the force per unit length along the interface between a liquid and air due to its tension. When a co-solvent or surfactant is present in an aqueous liquid at increasing concentrations, the surface tension of that liquid decreases. Interfacial tension is similar to surface tension except that it measures the force per unit length along the interface between two liquid phases arising from the surface free energy. The higher the interfacial tension between two liquids, the less likely one is to dissolve into the other, and the more difficult it is for one to be transported within the other. […]
The laboratory study performed to confirm the co-solvent properties of the high concentration electron donor solution measured the surface tension of electron donor solutions at various concentrations. Next, interfacial tensions between the same electron donor solutions and nonaqueous phase TCE were measured. […]

Compound | change in surface tension ([1]; sodium lactate concentration increased to 30 and 60%) | change in surface tension ([1]; sodium lactate concentrations from 0.01 to 7%) | reductive dechlorination of TCE to ethene ([2]; all wells receiving significant lactate concentrations) | TCE concentrations deep in the aquifer soon after addition began ([2]; well TAN-26) | accumulated cis-DCE, average concentration ([3]; 1 month after inoculation) [ppb] | methane accumulated, average ([3]; between 6 and 7 months) [µM] | methane concentration generated ([3]; in 3 months) | TCE remaining ([3]; one month after TCE re-addition, only ethene present) | TCE remaining ([3]; three months after inoculation, only ethene detected) | ethene production as share of amended TCE ([3]; two months after inoculation) [%] | interfacial tension as % of the value at a sodium lactate concentration of 0.1% ([4]; sodium lactate 30%) [%] | decrease of interfacial tension ([4]; sodium lactate increased from 0.1 to 3%) | effect on the solution's surface tension ([1]; addition of 1% and 10% ethyl lactate to the different sodium lactate solutions)
CC(O)C(=O)[O-].[Na+] (stereo not shown) [sodium lactate] | dramatic decrease | almost no change | Enhanced reductive dechlorination of TCE to ethene was observed | dramatic increase | 75 | 21 | approximately 50 μM | all of the TCE was gone | all of the TCE was gone | 10 | 47 | about 26% | 
CCOC(=O)C(C)O (stereo not shown) [ethyl lactate] |  |  |  |  |  |  |  |  |  |  |  |  | pronounced effect
